Test system: human PBMCs
Assay: Gene expression (Illumina BeadChip) in human PBMCs
Assay type: cell-based
Conditions: 30 ng/mL
Description: Human peripheral blood mononuclear cells (PBMCs) were isolated by Ficoll-Paque sedimentation of heparinised blood from a human donor, and cultured in RPMI-1640 10% FCS. Following treatment with Compound 1 at 30 ng/mL, the monolayer was washed once with phosphate buffered saline (PBS) and the cells harvested with sterile scrapers and stored as pellets at −80° C.
RNA was extracted from 30 mg of frozen tumour or 1×10^7 cells using the QiagenRNeasyPlus Mini Kit, according to manufacturer's instructions, then quantitated with a NanoDrop instrument and integrity confirmed on denaturing agarose gels bearing a 1 kb DNA marker and stained with ethidium bromide.
Approximately 500 ng of total unlabelled RNA was adjusted to a final volume of 11 μL with nuclease-free water. The RNA was incubated with 9 μL of the reverse transcriptase master mix (1 μL of T7 Oligo (dT) Primer, 2 μL of 10× first strand buffer, 4 μL of dNTP mix, 1 μL of RNase inhibitor and 1 μL of ArrayScript) at 42° C. for 2 hr. This was followed by the second strand cDNA synthesis step which involved a further incubation at 16° C. for 2 hr with 80 µL of the second strand master mix (63 μL nuclease-free water, 10 μL 10× second strand buffer, 4 μL dNTP mix, […] and 1 μL RNase H). The cDNA was purified by filtering through a cDNA Filter Cartridge with 250 μL of cDNA binding buffer and washing with 500 μL of the wash buffer provided in the kit. Purified cDNA was eluted with 20 μL of 55° C. nuclease-free water. Each cDNA sample was incubated with 7.5 μL of the IVT master mix (2.5 μL of T7 10× reaction buffer, 2.5 μL of T7 enzyme mix and 2.5 μL biotin-NTP mix) at 37° C. for 16 hr. The reaction was stopped with the addition of 75 μL of nuclease-free water to each cRNA sample. The biotinylated, amplified RNA was purified by filtering the cRNA samples through cRNA Filter Cartridges with 350 μL of cRNA binding buffer and 250 μL of 100% ethanol mixed together prior to loading onto the filters. The cRNA filter cartridges with attached RNA were then washed with 650 μL of wash buffer before eluting purified cRNA with 200 μL of 55° C. nuclease-free water.
The cRNA samples were heated at 65° C. for 5 min and collected by pulse centrifugation. After heating at 65 degrees for 5 min, approximately 750 ng of the cRNA sample was aliquoted into separate tubes to which were added ˜5 μL of RNase-free water and 10 μL of Hyb Mix. Approximately 15 μL of the prepared cRNA mix was loaded onto the Illumina Expression BeadChips. Subsequent steps of hybridisation and washing were carried out according to the Whole-Genome Gene Expression Direct Hybridization Assay Guide supplied by Illumina.
The Human HT-12 v4 Expression BeadChips cover more than 47,000 transcripts and known splice variants across the human transcriptome. The MouseRef-8 v2.0 Expression BeadChips cover approximately 25,600 well-annotated RefSeq (Reference Sequence) transcripts, comprising over 19,000 unique genes.
BeadChips were read by the iScan System, and transferred via GenomeStudio into GeneSpring GX v12.5 (Agilent Technologies, Santa Clara, Calif., USA). The expression values were normalized using quantile normalization with default settings. The entities were filtered based on the detection score calculated by GenomeStudio where p≤0.05 was considered significant.
Human peripheral blood mononuclear cells (PBMCs) are rich in lymphocytes and macrophage precursors (monocytes) involved in the production of cytokines and tissue remodelling enzymes relevant to the wound healing process. […] It should therefore be noted that the genes shown in Table 14 illustrate the range of relevant molecules regulated by Compound 1 in a mixed lymphoid population in vitro, without specifying the order of tissue-specific expression in vivo.

For `CC=C(C)C(=O)OC1C(C)C2(O)C(C3OC3(CO)C(O)C3(O)C(=O)C(C)=CC32)C2C(C)(C)C12OC(=O)C(C)CC` (centres unmarked) [Compound 1, 12-tigloyl-13-(2-methylbutanoyl)-6,7-epoxy-4,5,9,12,13,20-hexahydroxy-1-tigliaen-3-one], the “CCL3L1: Direction of regulation” value (4 h) was “Up”, the “CCL7: Direction of regulation” value (4 h) was “Up” and the “CXCL2: Direction of regulation” value (4 h) was “Up”. For the same compound, the “GM-CSF: Direction of regulation” value (4 h) was “Up”, the “HBEGF: Direction of regulation” value (4 h) was “Up” and the “KLF10: Direction of regulation” value (4 h) was “Up”. The “MMP1: Direction of regulation” value (4 h) was “Up”, the “MMP7: Direction of regulation” value (4 h) was “Up” and the “MMP10: Direction of regulation” value (4 h) was “Up”. The “MMP19: Direction of regulation” value (4 h) was “Up”, the “TGM3: Direction of regulation” value (4 h) was “Up” and the “THBS1: Direction of regulation” value (4 h) was “Down”. For the same compound, the “THBS1: Fold change in expression” value (4 h, Down) was −47.8 fold, the “CCL3L1: Fold change in expression” value (4 h, Up) was 5.3 fold and the “CCL7: Fold change in expression” value (4 h, Up) was 9.4 fold. For the same compound, the “CXCL2: Fold change in expression” value (4 h, Up) was 3.5 fold, the “GM-CSF: Fold change in expression” value (4 h, Up) was 4.3 fold and the “HBEGF: Fold change in expression” value (4 h, Up) was 2.7 fold. For the same compound, the “KLF10: Fold change in expression” value (4 h, Up) was 5.9 fold, the “MMP1: Fold change in expression” value (4 h, Up) was 3.1 fold and the “MMP7: Fold change in expression” value (4 h, Up) was 3.5 fold. The “MMP10: Fold change in expression” value (4 h, Up) was 3.2 fold, the “MMP19: Fold change in expression” value (4 h, Up) was 11.6 fold and the “TGM3: Fold change in expression” value (4 h, Up) was 2.3 fold. The “CCL1: Direction of regulation” value (24 h) was “Up”, the “CCL3: Direction of regulation” value (24 h) was “Up” and the “CCL3L1: Direction of regulation” value (24 h) was “Up”. For the same compound, the “CCL7: Direction of regulation” value (24 h) was “Up”, the “CSF1: Direction of regulation” value (24 h) was “Up” and the “CXCL1: Direction of regulation” value (24 h) was “Up”. The “CXCL2: Direction of regulation” value (24 h) was “Up”, the “CXCL5: Direction of regulation” value (24 h) was “Up” and the “CXCL7: Direction of regulation” value (24 h) was “Up”. For the same compound, the “CXCL13: Direction of regulation” value (24 h) was “Up”, the “GM-CSF: Direction of regulation” value (24 h) was “Up” and the “HBEGF: Direction of regulation” value (24 h) was “Up”. For the same compound, the “IL1α: Direction of regulation” value (24 h) was “Up”, the “IL1β: Direction of regulation” value (24 h) was “Up” and the “IL6: Direction of regulation” value (24 h) was “Up”. The “IL10: Direction of regulation” value (24 h) was “Up”, the “IL24: Direction of regulation” value (24 h) was “Up” and the “KLF10: Direction of regulation” value (24 h) was “Up”. For the same compound, the “MMP1: Direction of regulation” value (24 h) was “Up”, the “MMP7: Direction of regulation” value (24 h) was “Up” and the “MMP9: Direction of regulation” value (24 h) was “Down”. For the same compound, the “MMP10: Direction of regulation” value (24 h) was “Up”, the “MMP19: Direction of regulation” value (24 h) was “Up” and the “TGM2: Direction of regulation” value (24 h) was “Up”. The “TGM3: Direction of regulation” value (24 h) was “Up”, the “TGM5: Direction of regulation” value (24 h) was “Down” and the “THBS1: Direction of regulation” value (24 h) was “Down”. The “TIMP2: Direction of regulation” value (24 h) was “Down”, the “MMP9: Fold change in expression” value (24 h, Down) was −22.9 fold and the “TGM5: Fold change in expression” value (24 h, Down) was −3.3 fold. The “THBS1: Fold change in expression” value (24 h, Down) was −101.5 fold, the “TIMP2: Fold change in expression” value (24 h, Down) was −10.9 fold and the “CCL1: Fold change in expression” value (24 h, Up) was 39.8 fold. For the same compound, the “CCL3: Fold change in expression” value (24 h, Up) was 56.9 fold, the “CCL3L1: Fold change in expression” value (24 h, Up) was 72.3 fold and the “CCL7: Fold change in expression” value (24 h, Up) was 54.5 fold. The “CSF1: Fold change in expression” value (24 h, Up) was 5.1 fold, the “CXCL1: Fold change in expression” value (24 h, Up) was 15.5 fold and the “CXCL2: Fold change in expression” value (24 h, Up) was 73.5 fold. For the same compound, the “CXCL5: Fold change in expression” value (24 h, Up) was 8.1 fold, the “CXCL7: Fold change in expression” value (24 h, Up) was 17.5 fold and the “CXCL13: Fold change in expression” value (24 h, Up) was 2.2 fold. For the same compound, the “GM-CSF: Fold change in expression” value (24 h, Up) was 34.6 fold, the “HBEGF: Fold change in expression” value (24 h, Up) was 5.1 fold and the “IL1α: Fold change in expression” value (24 h, Up) was 14.6 fold. For the same compound, the “IL1β: Fold change in expression” value (24 h, Up) was 15.4 fold, the “IL6: Fold change in expression” value (24 h, Up) was 33.1 fold and the “IL10: Fold change in expression” value (24 h, Up) was 2.1 fold. The “IL24: Fold change in expression” value (24 h, Up) was 4.6 fold, the “KLF10: Fold change in expression” value (24 h, Up) was 9.3 fold and the “MMP1: Fold change in expression” value (24 h, Up) was 4.2 fold. The “MMP7: Fold change in expression” value (24 h, Up) was 7.4 fold, the “MMP10: Fold change in expression” value (24 h, Up) was 52 fold and the “MMP19: Fold change in expression” value (24 h, Up) was 2.6 fold. For the same compound, the “TGM2: Fold change in expression” value (24 h, Up) was 12.2 fold, the “TGM3: Fold change in expression” value (24 h, Up) was 28.4 fold and the “CCL1: Direction of regulation” value (96 h) was “Up”. For the same compound, the “CCL3L1: Direction of regulation” value (96 h) was “Up”, the “CCL7: Direction of regulation” value (96 h) was “Up” and the “CXCL5: Direction of regulation” value (96 h) was “Up”. For the same compound, the “CXCL7: Direction of regulation” value (96 h) was “Up”, the “CXCL13: Direction of regulation” value (96 h) was “Up” and the “GM-CSF: Direction of regulation” value (96 h) was “Up”. For the same compound, the “MMP7: Direction of regulation” value (96 h) was “Up”, the “TGM2: Direction of regulation” value (96 h) was “Up” and the “CCL1: Fold change in expression” value (96 h, Up) was 42.6 fold. For the same compound, the “CCL3L1: Fold change in expression” value (96 h, Up) was 4.2 fold, the “CCL7: Fold change in expression” value (96 h, Up) was 4.8 fold and the “CXCL5: Fold change in expression” value (96 h, Up) was 15.1 fold. For the same compound, the “CXCL7: Fold change in expression” value (96 h, Up) was 37.4 fold, the “CXCL13: Fold change in expression” value (96 h, Up) was 23.5 fold and the “GM-CSF: Fold change in expression” value (96 h, Up) was 6 fold. The “MMP7: Fold change in expression” value (96 h, Up) was 117.3 fold and the “TGM2: Fold change in expression” value (96 h, Up) was 4.4 fold.
